Active and inactive are the calls of the source.
Tests used:
[1] = HGIII-sPLA2 enzyme inhibition potency – biochemical, QFRET, IC50, dose response (AID 743457);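 further: green fluorescence rise as the enzyme cleaves BODIPY PC-A2 in liposomes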
[2] = biological target: Glyceraldehyde-3-phosphate dehydrogenase (Homo sapiens, UniProt P04406)
[3] = biological target: T1, Fructose-bisphosphate aldolase (Mycobacterium tuberculosis, UniProt P9WQA3); assay: Fluorescence-based biochemical high throughput dose response assay for inhibitors of the fructose-bisphosphate aldolase (FBA) of M. tuberculosis.; assay type: functional
T1 sequence (P9WQA3 whole entry): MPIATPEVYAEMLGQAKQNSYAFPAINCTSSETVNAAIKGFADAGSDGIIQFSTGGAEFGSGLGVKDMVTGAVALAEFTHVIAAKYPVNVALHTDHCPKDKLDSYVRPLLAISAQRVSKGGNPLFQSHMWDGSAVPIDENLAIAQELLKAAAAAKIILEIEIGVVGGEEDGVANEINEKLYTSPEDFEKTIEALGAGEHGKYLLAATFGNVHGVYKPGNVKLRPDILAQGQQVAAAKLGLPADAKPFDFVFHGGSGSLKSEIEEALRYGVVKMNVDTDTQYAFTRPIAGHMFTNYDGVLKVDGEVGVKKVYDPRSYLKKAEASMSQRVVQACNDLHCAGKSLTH

fMet-Leu-Phe receptor = biological target: T2, fMet-Leu-Phe receptor (Homo sapiens, UniProt P21462); assay: formyl peptide receptor binders – dose response (AID 519); assay type: functional
T2 sequence (P21462 whole entry): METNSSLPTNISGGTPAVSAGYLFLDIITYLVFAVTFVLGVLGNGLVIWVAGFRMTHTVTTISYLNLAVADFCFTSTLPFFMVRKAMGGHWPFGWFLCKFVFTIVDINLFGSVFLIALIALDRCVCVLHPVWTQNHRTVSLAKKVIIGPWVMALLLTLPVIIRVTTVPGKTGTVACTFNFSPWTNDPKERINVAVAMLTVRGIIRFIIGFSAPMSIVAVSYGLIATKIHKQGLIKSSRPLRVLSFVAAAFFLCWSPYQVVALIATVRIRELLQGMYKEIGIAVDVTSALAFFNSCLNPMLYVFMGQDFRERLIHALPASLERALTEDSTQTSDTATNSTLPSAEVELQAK

[4] = biological target: T3, Long-chain-fatty-acid--AMP ligase FadD28 (Mycobacterium tuberculosis, UniProt P9WQ59); assay: Fluorescence polarization aasay to screen for inhibitors that compete for the binding of FadD28 to a bisubstrate Measured in Biochemical System Using Plate Reader - 2147-01_Inhibitor_Dose_CherryPick_Activity.; assay type: functional, Mycobacterium tuberculosis H37Rv
T3 sequence (P9WQ59 whole entry): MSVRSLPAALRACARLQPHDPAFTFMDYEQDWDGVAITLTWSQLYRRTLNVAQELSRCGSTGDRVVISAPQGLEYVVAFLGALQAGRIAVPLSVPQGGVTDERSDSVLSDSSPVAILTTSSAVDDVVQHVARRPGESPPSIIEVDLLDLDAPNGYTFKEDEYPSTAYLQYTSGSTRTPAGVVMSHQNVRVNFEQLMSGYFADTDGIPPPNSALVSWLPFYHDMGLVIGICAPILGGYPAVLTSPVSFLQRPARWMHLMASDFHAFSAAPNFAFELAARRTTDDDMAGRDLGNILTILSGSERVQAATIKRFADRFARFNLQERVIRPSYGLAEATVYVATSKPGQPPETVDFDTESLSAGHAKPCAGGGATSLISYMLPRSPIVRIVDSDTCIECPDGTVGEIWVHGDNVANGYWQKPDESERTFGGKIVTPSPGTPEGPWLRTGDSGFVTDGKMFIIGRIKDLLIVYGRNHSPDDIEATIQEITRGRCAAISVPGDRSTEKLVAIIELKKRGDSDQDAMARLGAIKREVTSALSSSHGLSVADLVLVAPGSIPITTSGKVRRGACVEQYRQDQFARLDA

[5] = A549 cell cytotoxicity, dose response, cytotoxicity control, plate reader, cherry-pick, antagonist series (AID 743412); assay type: functional, cell-based
[6] = blockers of bursicon-stimulated LGR2 cAMP reporter – cell-based, HEK293, CRE-luciferase reporter, cherry pick, set 2, dose response (AID 743343); assay type: functional;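 further: transfected cells were stimulated with diluted bursicon conditioned medium after compound addition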
[7] = blockade of melanocortin 4 receptor signaling – cell-based, plate reader, cherry pick, counter-screen for LGR2 antagonist project, dose response (AID 743444); assay type: functional;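 further: transfected HEK 293 cells stimulated with alpha-MSH peptide; potency of inhibitors of the alpha-MSH evoked signal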
[8] = biological target: Photoreceptor-specific nuclear receptor (Homo sapiens, UniProt Q9Y5X4); assay type: functional, cell-based;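 further: CHO-S cells with Gal4-NCOR and VP16-NR2E3 two-hybrid luciferase reporter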
Chain of Photoreceptor-specific nuclear receptor (Q9Y5X4 whole entry, the tested form may be a part): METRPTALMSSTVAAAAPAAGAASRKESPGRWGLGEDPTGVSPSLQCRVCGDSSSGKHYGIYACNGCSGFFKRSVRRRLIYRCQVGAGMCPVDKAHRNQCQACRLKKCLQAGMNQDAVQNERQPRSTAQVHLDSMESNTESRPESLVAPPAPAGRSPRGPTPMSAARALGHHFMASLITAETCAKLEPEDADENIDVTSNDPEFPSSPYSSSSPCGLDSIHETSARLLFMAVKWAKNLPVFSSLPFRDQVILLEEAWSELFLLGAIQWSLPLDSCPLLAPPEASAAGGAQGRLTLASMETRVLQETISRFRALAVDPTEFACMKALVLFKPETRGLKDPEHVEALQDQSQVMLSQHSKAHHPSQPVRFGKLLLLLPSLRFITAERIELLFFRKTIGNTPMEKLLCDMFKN

[9] = biological target: T4, Oxysterols receptor LXR-beta (Homo sapiens, UniProt P55055); assay type: functional, cell-based;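 further: agonist activity at LXR measured by a cell-based luminescence readout across a dose range, run as a counterscreen for daf-12 agonists; potency for activation of Gal4-LXR reporter so compounds are agonists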
T4 sequence (P55055 whole entry): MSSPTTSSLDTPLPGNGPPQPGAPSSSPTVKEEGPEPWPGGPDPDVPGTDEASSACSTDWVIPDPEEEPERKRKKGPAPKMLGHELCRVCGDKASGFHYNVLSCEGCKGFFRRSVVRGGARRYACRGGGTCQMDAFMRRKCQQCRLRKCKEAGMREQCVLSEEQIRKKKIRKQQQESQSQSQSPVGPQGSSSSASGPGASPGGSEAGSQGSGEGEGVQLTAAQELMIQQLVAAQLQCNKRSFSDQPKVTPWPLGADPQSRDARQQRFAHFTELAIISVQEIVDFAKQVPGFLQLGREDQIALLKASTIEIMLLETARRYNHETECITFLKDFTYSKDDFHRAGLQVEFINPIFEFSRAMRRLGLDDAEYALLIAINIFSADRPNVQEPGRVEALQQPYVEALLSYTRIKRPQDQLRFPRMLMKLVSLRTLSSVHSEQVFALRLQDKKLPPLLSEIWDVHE

[10] = Luminescence-based cell-based high throughput dose response assay to identify activators of the DAF-12 from the parasite S. stercoralis (ssDAF-12).; assay type: functional
[11] = biological target: T4, Oxysterols receptor LXR-beta; assay: LXR agonists, Gal4 luciferase reporter, dose response, counter-screen for ssDAF-12 agonist project, cell-based, luminescence, HEK293, S. stercoralis campaign (AID 720737); assay type: functional; details: read-out: IC50 (the source's name)
[12] = HEK-293T viability loss after treatment – luminescence, T-cell screen hits, cytotoxicity control for TCR NF-kB inhibitor project, dose response (AID 489026); assay type: functional, cell-based;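 further: cells exposed to compound about 14 hours before the viability readout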
Nonstructural protein 1 = Nonstructural protein 1 (Influenza A virus, UniProt Q194T2); assay type: functional, Influenza A virus (A/California/07/2009(H1N1))
Chain of Nonstructural protein 1 (Q194T2 whole entry): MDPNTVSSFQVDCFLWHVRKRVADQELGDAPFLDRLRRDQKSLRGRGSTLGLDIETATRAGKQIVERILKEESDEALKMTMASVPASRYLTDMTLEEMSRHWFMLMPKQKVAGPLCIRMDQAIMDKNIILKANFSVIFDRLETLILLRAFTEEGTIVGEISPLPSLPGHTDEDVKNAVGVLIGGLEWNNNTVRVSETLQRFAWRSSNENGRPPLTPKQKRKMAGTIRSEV

[13] = biological target: T5, Apoptotic protease-activating factor 1 (Homo sapiens, UniProt O14727); assay type: functional
T5 sequence (O14727 whole entry): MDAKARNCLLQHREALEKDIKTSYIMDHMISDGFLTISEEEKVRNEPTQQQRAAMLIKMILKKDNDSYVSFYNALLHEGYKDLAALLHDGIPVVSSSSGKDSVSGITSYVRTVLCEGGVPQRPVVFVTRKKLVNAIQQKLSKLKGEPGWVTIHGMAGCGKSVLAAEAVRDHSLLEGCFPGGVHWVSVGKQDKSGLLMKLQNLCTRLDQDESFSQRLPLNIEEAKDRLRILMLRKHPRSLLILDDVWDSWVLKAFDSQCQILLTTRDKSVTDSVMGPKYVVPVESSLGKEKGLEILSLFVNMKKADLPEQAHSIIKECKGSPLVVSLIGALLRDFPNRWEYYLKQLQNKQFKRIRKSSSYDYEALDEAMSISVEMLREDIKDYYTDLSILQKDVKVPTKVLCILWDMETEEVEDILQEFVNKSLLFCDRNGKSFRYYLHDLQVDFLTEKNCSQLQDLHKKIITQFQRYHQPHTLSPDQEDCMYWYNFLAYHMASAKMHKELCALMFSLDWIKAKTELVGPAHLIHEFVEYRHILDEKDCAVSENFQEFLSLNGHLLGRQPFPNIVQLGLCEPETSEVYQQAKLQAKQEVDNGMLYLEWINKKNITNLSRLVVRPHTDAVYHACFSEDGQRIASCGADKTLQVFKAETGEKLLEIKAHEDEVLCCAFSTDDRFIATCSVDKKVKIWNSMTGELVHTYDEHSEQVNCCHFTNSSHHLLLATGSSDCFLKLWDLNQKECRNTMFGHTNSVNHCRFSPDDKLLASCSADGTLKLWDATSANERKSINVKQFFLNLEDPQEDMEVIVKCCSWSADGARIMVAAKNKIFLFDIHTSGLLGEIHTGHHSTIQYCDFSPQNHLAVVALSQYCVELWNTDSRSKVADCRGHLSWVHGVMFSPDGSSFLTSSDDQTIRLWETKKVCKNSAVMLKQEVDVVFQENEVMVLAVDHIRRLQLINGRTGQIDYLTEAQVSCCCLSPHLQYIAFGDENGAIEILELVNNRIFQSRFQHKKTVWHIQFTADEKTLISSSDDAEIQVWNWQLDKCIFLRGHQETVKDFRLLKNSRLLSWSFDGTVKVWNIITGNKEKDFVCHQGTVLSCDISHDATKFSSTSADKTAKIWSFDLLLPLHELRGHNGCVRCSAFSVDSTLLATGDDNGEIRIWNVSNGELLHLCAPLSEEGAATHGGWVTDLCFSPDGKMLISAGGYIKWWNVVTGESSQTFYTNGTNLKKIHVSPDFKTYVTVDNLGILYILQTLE

INS1 = assay: INS-1E survival protection against cytokine death – cell-based, luminescence, retest, dose response (AID 449756); assay type: functional; details: Rattus norvegicus;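 further: cell death triggered by IL-1 beta plus TNF-alpha plus IFN-gamma mixture; protective hits raise ATP signal compared with cytokine alone wells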
[14] = viability loss in HeLa cells – cytotoxicity control for MgcRacGAP inhibitor project, dose response (AID 624300); assay type: functional
[15] = biological target: T6, Rac GTPase-activating protein 1 (Homo sapiens, UniProt Q9H0H5); assay: blockers of MgcRacGAP-driven Rac1 GTP hydrolysis – biochemical, ADP Hunter fluorescence, primary and confirmatory, confirmation (AID 624330); assay type: functional
T6 sequence (Q9H0H5 whole entry): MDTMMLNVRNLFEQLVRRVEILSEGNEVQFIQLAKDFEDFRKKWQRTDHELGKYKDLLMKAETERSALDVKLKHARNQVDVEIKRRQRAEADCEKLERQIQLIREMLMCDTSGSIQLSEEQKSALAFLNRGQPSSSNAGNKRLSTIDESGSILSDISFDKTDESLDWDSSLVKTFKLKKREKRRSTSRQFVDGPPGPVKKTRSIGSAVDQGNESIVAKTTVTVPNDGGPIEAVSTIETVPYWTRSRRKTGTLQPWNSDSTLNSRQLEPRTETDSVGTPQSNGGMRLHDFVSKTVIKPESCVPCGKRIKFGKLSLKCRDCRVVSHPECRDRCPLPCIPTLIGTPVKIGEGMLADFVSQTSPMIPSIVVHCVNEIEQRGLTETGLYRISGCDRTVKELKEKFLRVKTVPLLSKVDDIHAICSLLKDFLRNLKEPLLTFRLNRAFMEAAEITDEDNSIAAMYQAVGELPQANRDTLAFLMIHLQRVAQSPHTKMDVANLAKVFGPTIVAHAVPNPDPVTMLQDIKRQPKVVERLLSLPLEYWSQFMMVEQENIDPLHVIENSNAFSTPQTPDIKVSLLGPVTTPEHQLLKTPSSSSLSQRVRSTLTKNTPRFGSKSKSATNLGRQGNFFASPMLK

Cytochrome P450 2D6 = Cytochrome P450 2D6 (Homo sapiens, UniProt P10635);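 further: CYP2D6 member of a cytochrome P450 panel assay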
Chain of Cytochrome P450 2D6 (P10635 whole entry): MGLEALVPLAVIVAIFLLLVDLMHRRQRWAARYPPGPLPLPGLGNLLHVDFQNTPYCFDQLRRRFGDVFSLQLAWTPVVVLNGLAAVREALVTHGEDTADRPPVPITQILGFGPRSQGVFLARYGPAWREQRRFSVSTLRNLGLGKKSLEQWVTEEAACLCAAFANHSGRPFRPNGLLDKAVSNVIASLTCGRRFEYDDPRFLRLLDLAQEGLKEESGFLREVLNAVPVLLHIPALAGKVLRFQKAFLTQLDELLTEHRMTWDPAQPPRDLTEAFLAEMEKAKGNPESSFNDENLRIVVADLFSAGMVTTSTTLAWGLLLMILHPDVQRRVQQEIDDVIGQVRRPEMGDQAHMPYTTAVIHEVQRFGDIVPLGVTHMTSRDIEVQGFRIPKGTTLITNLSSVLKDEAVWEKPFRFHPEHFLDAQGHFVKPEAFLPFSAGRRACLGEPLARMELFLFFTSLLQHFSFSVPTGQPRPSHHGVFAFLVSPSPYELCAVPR

Cytochrome P450 1A2 = biological target: T7, Cytochrome P450 1A2 (Homo sapiens, UniProt P05177);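 further: PubChem cytochrome P450 panel assay, CYP1A2 panel member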
T7 sequence (P05177 whole entry): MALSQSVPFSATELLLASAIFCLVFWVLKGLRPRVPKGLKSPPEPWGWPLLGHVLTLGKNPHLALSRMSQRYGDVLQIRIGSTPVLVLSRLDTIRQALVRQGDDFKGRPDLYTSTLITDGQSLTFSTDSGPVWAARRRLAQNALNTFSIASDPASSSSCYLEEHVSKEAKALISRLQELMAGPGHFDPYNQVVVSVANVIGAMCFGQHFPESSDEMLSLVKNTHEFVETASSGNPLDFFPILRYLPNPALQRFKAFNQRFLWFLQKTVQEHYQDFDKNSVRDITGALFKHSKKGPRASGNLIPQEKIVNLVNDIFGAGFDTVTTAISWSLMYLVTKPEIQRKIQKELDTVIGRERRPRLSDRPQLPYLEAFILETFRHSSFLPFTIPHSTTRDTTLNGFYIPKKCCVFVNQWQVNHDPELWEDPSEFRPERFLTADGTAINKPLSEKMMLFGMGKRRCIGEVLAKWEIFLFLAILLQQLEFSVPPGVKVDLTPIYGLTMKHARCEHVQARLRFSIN

Cytochrome P450 3A4 = Cytochrome P450 3A4 (Homo sapiens, UniProt P08684);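 further: CYP3A4 tested as one member of a cytochrome P450 panel screen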
Chain of Cytochrome P450 3A4 (P08684 whole entry): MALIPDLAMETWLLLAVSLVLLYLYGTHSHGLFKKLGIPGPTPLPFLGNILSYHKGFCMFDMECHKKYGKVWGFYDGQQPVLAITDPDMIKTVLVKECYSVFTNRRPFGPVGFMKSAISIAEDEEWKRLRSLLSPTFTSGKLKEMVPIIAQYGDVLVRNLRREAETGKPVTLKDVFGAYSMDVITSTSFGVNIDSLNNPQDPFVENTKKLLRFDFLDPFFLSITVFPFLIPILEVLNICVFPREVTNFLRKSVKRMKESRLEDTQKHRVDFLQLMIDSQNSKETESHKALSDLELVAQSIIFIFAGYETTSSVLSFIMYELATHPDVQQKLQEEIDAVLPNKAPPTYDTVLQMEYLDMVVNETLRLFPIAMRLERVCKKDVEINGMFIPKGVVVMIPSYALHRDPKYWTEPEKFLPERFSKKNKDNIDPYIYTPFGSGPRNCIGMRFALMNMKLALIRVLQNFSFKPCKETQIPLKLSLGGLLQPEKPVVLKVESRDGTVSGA

Chain of Glyceraldehyde-3-phosphate dehydrogenase (P04406 whole entry): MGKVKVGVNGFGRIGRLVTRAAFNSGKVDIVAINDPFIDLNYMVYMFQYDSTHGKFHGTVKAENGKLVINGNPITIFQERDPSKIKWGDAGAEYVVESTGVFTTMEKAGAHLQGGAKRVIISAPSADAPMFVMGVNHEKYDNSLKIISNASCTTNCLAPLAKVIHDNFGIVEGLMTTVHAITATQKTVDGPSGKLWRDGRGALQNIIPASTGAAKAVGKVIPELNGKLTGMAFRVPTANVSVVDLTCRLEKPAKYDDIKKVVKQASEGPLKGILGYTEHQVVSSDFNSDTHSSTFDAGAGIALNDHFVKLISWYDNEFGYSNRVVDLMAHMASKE

O=C(CSc1nnc(-c2ccccc2)n1-c1ccc(Cl)cc1)NNC(=S)Nc1ccccc1
IC50 [1]: > 122 µM (inactive)

O=C(O)c1cc(S(=O)(=O)Nc2ccccc2C(=O)O)ccc1O
IC50 [2]: > 100 µM (not active)
IC50 [3]: > 9.99 µM (inactive)

CCCOc1ccc2c(=O)c(N3C(=O)c4ccccc4C3=O)c(C)oc2c1
Ki (fMet-Leu-Phe receptor): > 66.7 µM (inactive)

CCOC(=O)N1CCC(NC(=O)c2cc3cc4cc(OC)ccc4nc3o2)CC1
IC50 [3]: > 0.37 µM (active)

Cc1cccc(NC(=O)CN2C(=O)N/C(=C\c3ccc(-c4cccc(C(=O)O)c4)o3)C2=O)c1
AC50 [4]: 3.6 µM (active)

CC(C)(C)n1cc(C(=O)c2ccc3ccccc3c2O)cn1
AC50 [5]: > 52 µM (inactive)
AC50 [6]: 6.45 µM (active)
AC50 [7]: 14.3 µM (active)

Cc1ccnc(NC(=O)C2CCN(S(=O)(=O)c3c(C)c(C)cc(C)c3C)CC2)c1
IC50 [8]: 1.85 µM (active)
EC50 [9]: > 67.6 µM (inactive)

O=C1/C(=C\c2cccs2)Sc2ccc3ccccc3c21
IC50 [10]: > 67.6 µM (inactive)
EC50 [11]: > 67.6 µM (inactive)
EC50 [9]: > 67.5 µM (inactive)

COC(=O)c1ccc(C2C(C(=O)c3ccc(OC)cc3)=C(O)C(=O)N2Cc2ccco2)cc1 (centres undefined)
Ki (fMet-Leu-Phe receptor): 43 µM (inactive)

Cc1ccc(S(=O)(=O)NC2=CC(=Nc3ccc(O)cc3)C(=O)c3ccccc32)cc1
IC50 [12]: 1.58 µM (active)
IC50 (Nonstructural protein 1): 7.33 µM (active)
IC50 [13]: 2.14 µM (active)
AC50 (INS1): 0.588 µM (active)
CC50 [14]: 2.86 µM (active)
IC50 [15]: 78.2 µM (active)

COc1ccc(CNC(=O)COC(=O)c2ccc(Br)c(S(=O)(=O)N3CCOCC3)c2)cc1
AC50 [4]: > 100 µM (inactive)

Cc1ccc(-c2nnc(SCC(=O)NN=C(S)Nc3ccccc3)n2C2CCCCC2)cc1
IC50 [1]: > 122 µM (inactive)

O=[N+]([O-])c1ccccc1/C=N/n1c(S)nnc1C1CCCCC1
IC50 [1]: > 122 µM (inactive)

CCN(CC)c1ccc(/C=N/NC(=O)c2ccc3c(c2)OCCO3)cc1
AC50 [4]: 74.2 µM (active)

NC(=Nc1ccccc1)NC(=O)c1nc(Cl)c(N)nc1N [PHENAMIL METHANESULFONATE]
EC50 [9]: > 67.5 µM (inactive)
AC50 (Cytochrome P450 2D6): 31.6 µM (inconclusive)
AC50 (Cytochrome P450 1A2): 12.6 µM (inconclusive)
AC50 (Cytochrome P450 3A4): 39.8 µM (inconclusive)

— ChEMBL document CHEMBL1201862, “PubChem BioAssay data set” (2004)
